Data set [1] has as its target T1, PAD1 (Homo sapiens, UniProt Q9ULC6).
T1 construct: made in house
T1 sequence (Q9ULC6 1-663): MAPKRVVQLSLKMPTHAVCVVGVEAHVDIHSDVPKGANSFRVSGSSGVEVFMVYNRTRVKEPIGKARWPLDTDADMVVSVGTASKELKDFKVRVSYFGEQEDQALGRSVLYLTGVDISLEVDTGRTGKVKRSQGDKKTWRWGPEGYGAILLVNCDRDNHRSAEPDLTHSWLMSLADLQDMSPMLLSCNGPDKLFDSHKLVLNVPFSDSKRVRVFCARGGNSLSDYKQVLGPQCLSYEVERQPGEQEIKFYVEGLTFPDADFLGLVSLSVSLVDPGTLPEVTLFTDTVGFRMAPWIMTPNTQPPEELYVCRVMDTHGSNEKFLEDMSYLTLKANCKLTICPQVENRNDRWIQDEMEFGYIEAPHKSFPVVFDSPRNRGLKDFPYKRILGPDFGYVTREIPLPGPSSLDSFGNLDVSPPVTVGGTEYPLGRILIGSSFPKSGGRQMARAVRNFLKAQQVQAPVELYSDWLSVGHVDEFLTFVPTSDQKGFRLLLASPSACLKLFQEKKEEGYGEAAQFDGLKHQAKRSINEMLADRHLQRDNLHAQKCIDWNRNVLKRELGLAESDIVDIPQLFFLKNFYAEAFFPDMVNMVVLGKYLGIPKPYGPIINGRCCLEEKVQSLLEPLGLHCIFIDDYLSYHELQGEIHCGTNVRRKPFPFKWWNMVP
Kind of data set: Inactivation kinetics of PAD1 (COLDER citrulline assay). It is filed as biochemical. The conditions noted are these: for Ki / kinact/KI / kinact: PAD1; for Ki: concentration of inhibitor that affords half-maximal inactivation; for kinact/KI: marks: * nonlinear fit of kobs versus [I], ‡ linear fit, † single kobs; for Fold PAD selectivity: PAD1 over the other PADs, bracketed value under kinact/KI. As to the method:
(§1) Inactivation kinetics. […] After 15 min, reactions were quenched with liquid nitrogen and the production of citrulline was quantified using the COLDER assay. (Kearney, et al. Biochemistry 2005, 44, 10570-10582; Knipp, et al. Anal. Biochem. 2000, 286, 257-264.) The time-dependence of PAD inhibition was fit to the following equation 1, […] (1), using Grafit, version 5.0.11, where v is velocity, ν0 is initial velocity, k (or kobs is the pseudo-first-order rate constant of inactivation, and t is time. Upon reaching saturation, the concentration dependence of kobs was fit to equation 2, kobs=kinact[I]/(KI+[I]), (2), using Grafit, version 5.0.11, where kinact is the maximal rate of inactivation, KI is the concentration of inhibitor that affords half-maximal inactivation, and [I] is the concentration of inhibitor. When kobs with [I] varied linearly, kinact/KI was determined from the slope of the line. All the experiments were performed at least in duplicate.

Data set [2] addresses T2, PAD2 (Homo sapiens, UniProt Q9Y2J8).
T2 construct: made in house
Kind of data set: Inactivation kinetics of PAD2 (COLDER citrulline assay). The format is biochemical. The conditions noted are these: for Fold PAD selectivity: bracketed value under kinact/KI; for kinact/KI: marks: * nonlinear fit of kobs versus [I], ‡ linear fit, † single kobs. As for the experimental part: as §1

In data set [3] the target is T3, PAD3 (Homo sapiens, UniProt Q9ULW8).
T3 construct: made in house
T3 sequence (Q9ULW8 1-664): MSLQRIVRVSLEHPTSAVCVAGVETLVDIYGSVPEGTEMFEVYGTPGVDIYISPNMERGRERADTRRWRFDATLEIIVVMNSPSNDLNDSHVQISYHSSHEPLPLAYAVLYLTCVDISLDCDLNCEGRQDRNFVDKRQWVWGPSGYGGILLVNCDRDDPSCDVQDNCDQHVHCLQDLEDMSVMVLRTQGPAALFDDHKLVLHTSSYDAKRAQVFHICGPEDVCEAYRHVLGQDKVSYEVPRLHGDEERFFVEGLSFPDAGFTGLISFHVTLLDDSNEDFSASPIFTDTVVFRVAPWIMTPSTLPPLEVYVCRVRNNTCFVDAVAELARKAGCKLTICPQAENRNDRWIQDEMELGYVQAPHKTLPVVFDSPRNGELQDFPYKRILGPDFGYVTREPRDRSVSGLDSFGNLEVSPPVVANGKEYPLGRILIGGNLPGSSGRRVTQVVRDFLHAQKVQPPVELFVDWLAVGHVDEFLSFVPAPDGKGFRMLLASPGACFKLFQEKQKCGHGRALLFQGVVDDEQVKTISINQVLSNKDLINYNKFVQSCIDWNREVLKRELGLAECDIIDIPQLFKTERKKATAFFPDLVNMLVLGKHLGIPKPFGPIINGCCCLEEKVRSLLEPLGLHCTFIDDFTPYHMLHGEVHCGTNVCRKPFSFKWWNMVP
Kind of data set: Inactivation kinetics of PAD3 (COLDER citrulline assay). It is filed as biochemical. The following applies: for Fold PAD selectivity: bracketed value under kinact/KI; for kinact/KI: marks: * nonlinear fit of kobs versus [I], ‡ linear fit, † single kobs. As for the experimental part:
as §1

The target in data set [4] is T4, PAD4 (Homo sapiens, UniProt Q9UM07).
T4 construct: made in house
Kind of data set: Inactivation kinetics of PAD4 (COLDER citrulline assay). The format is biochemical. The conditions noted are these: for Fold PAD selectivity: bracketed value under kinact/KI; for kinact/KI: marks: * nonlinear fit of kobs versus [I], ‡ linear fit, † single kobs. As for the experimental part: as §1

The target of data set [5] is T1, PAD1. Kind of data set: Histone H3 citrullination in HEK293TPAD1 cells. It is filed as cell-based. The conditions noted are these: 1 mM CaCl2, 5 μM ionomycin, 3 h, read-out: EC50 of inhibition of histone H3 citrullination. As for the experimental part: The final concentration of DMSO in each well was 1%. […] All the experiments were performed at least in duplicate.

The subject of data set [6] is HEK293TPAD1 cells. In words: Cytotoxicity studies (XTT) in HEK293TPAD1 cells. It is filed as cell-based, human. The following applies: cytotoxicity EC50 (XTT, 24 h) over EC50 for histone H3 citrullination. As for the experimental part: Cytotoxicity Studies. HEK293TPAD1 cells were seeded (2×10^4 cells/well) on 96-well plate and were allowed to grow in DMEM (supplemented with 10% heat-inactivated fetal bovine serum, 100 units/mL penicillin, 100 μg/mL streptomycin and 0.15 mg/mL hygromycin B) for 24 h. Cells were then treated with DMSO or various concentrations of inhibitor at 37° C. for 24 h. Activated XTT reagent (ATCC) was added to each well and cells were further incubated at 37° C. for 5 h. Cell viability was measured by recording the absorbance at 475 nm and 660 nm. Equation 3, Y=Bottom+(Top−Bottom)/[1+10^((logEC50-X)*Hillslope)] (3), was used to fit an eight-point dose-response curve to determine the EC50 values for inhibition of cell-proliferation using GraphPad Prism 7.03. Top and Bottom are plateaus of the dose-response curve, X is the log of inhibitor-concentration, Hillslope is the slope factor or Hill slope. All the experiments were performed at least in triplicate.
For orientation: Tetrazolium dyes change colour on reduction, which living cells bring about.

Data set [7] concerns pronuclear mouse zygotes. In words: Early embryo development of pronuclear mouse zygotes. The format is cell-based. The following applies: 100 μM inhibitor, 100 h of culture, 87% of control zygotes reached blastocyst stage. As to the method:
In Vitro Fertilization. Female ICR mice (4-6 weeks) were injected intraperitoneally with 10 international units (IU) of pregnant mare serum gonadotropin (PMSG) and after 46 h, 10 IU of human chorionicgonadotropin (hCG). After 16 h, cumulus masses were released from oviducts into HEPES-buffered HTF culture medium (HTF) (InVitro Care, Frederick, MD). Cauda epididymal mouse spermatozoa were released and placed in drops of HTF culture medium (InVitro Care). Then the sperm suspensions were added to the cumulus mass drops with a final concentration of approximately 1-3×10^5/mL. Zygotes were collected and transferred to KSOM medium containing 100 μM PAD1 inhibitor or equal volume of DMSO as a control. Then 4-cell and blastocyst stage embryos were collected after 48 and 100 h of culture, respectively.

Where [8] appears, read: read-out: kinact/KI (converted).

Where two headings read alike, the source gives them in different places.

T4 sequence (Q9UM07 whole entry): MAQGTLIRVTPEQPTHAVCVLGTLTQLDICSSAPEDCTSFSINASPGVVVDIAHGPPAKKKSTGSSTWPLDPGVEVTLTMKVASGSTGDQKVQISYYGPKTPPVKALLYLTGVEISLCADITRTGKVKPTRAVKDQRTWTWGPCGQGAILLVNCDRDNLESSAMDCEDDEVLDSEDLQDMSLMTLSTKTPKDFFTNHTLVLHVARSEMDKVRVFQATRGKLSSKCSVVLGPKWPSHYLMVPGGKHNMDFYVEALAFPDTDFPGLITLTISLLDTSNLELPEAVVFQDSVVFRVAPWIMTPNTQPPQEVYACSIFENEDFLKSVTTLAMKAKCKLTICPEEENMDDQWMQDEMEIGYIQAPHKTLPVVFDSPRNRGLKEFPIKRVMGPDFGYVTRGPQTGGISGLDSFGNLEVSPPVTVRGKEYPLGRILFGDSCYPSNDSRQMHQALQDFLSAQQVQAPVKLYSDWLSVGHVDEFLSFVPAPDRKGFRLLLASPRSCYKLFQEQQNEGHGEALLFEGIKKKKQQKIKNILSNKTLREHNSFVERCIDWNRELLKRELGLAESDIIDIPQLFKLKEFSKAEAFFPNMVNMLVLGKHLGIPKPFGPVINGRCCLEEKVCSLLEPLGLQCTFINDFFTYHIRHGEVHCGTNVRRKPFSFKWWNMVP
T2 sequence (Q9Y2J8 whole entry): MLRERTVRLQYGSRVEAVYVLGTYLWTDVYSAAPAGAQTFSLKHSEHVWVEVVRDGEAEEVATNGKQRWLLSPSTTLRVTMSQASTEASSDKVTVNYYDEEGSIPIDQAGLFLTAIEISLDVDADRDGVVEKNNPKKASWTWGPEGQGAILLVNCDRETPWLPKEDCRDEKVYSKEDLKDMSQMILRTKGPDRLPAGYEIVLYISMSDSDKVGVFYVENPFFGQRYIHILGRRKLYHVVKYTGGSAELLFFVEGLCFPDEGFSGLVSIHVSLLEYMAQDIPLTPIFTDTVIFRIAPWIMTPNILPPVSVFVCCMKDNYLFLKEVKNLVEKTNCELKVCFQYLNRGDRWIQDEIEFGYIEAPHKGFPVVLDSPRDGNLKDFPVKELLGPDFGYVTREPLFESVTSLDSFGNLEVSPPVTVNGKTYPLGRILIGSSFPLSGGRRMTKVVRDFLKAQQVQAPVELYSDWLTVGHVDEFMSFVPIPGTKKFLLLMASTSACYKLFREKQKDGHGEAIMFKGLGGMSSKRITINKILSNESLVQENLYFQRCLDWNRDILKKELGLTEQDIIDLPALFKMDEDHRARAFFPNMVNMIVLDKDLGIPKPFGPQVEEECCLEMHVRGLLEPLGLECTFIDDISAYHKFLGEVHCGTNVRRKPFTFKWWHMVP

The kinact is the rate constant of inactivation at saturating inhibitor. As a reminder, the EC50 is the concentration at which the effect is half-maximal. `N=C(CF)NCCC[C@H](NC(=O)c1cc(I)c(F)c(I)c1O)c1nc2ccccc2[nH]1` [Compound 19] displayed a Ki in data set [1] of 30.2 µM. The kinact/KI in data set [1] (setting [8]) was 221 M⁻¹ s⁻¹; in data set [2] (setting [8]), 5 M⁻¹ s⁻¹; in data set [3] (setting [8]), 11.7 M⁻¹ s⁻¹; in data set [4] (setting [8]), 5 M⁻¹ s⁻¹. Also, in data set [1] (read-out: kinact (converted)), the kinact was 0.00667 s⁻¹. Moreover, the “Fold PAD selectivity” value in data set [1] is 44 fold; in data set [2], “[1] fold”; in data set [3], “[2] fold”; in data set [4], “[1] fold”. The EC50 in data set [5] was 31.8 µM. Moreover, the “Efficacy Index (the ratio of cytotoxicity to EC50)” value in data set [6] is recorded as 10. For the same compound, the “Effect on early embryo development” value in data set [7] is on record as “dramatic arrest of embryo development at the morula stage”.
As to `C#Cc1c(I)cc(C(=O)N[C@@H](CCCNC(=N)CF)c2nc3ccccc3[nH]2)c(O)c1I` [Compound 21], in data set [1], the kinact was 0.00517 s⁻¹, the Ki is 69.2 µM and the kinact/KI is listed as 4480 ± 200* M^−1min^−1. Also, in data set [2], the “Fold PAD selectivity” value is “[1] fold” and the kinact/KI is on record as 130 ± 30^† M^−1min^−1. In data set [3], the “Fold PAD selectivity” value was “[2] fold” and the kinact/KI is 310 ± 80^† M^−1min^−1. In data set [4], the “Fold PAD selectivity” value is “[2] fold” and the kinact/KI is recorded as 220 ± 30^† M^−1min^−1.
Turning to `N=C(CF)NCCC[C@H](NC(=O)c1cc(I)cc(I)c1O)c1nc2ccccc2[nH]1` [Compound 1], the Ki in data set [1] was 12.5 µM. Also, the kinact/KI in data set [1] (setting [8]) is 173 M⁻¹ s⁻¹; in data set [2] (setting [8]), 2.33 M⁻¹ s⁻¹; in data set [3] (setting [8]) it was 3.33 M⁻¹ s⁻¹; in data set [4] (setting [8]) it was 4.5 M⁻¹ s⁻¹. The inactivation rate constant (kinact) in data set [1] (read-out: kinact (converted)) is 0.00217 s⁻¹. Moreover, the “Fold PAD selectivity” value was 74 fold in data set [1], “[1] fold” in data set [2], “[1] fold” in data set [3] and “[2] fold” in data set [4]. The EC50 in data set [5] came to 14.5 µM. Also, the “Efficacy Index (the ratio of cytotoxicity to EC50)” value in data set [6] is 17. The “Effect on early embryo development” value in data set [7] was “dramatic arrest of embryo development at the morula stage”.

The values are drawn from patent publication US12448358B2, “Inhibitors of protein arginine deiminase 1 and methods of preparation and use thereof” (University of Massachusetts, priority 2019, dated 2025).
